According to publication PMC4286194 (Biochemical Journal, 2015):

Assays:
[1] = target: T1, TAK1 (Homo sapiens, UniProt O43318); test: Kinase profiling; type: biochemical
T1 sequence (O43318 1-303 limits assumed): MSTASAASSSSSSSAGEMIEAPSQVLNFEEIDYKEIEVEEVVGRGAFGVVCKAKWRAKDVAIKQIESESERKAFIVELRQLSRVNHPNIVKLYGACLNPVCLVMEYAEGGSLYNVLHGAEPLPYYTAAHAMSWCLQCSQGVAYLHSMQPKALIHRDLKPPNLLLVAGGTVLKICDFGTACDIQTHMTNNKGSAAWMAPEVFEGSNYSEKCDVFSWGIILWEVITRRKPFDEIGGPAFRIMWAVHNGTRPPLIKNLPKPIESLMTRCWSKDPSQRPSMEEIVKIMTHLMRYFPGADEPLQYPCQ

[2] = tested on: Bone-marrow-derived macrophages; test: CREB-dependent gene transcription (qPCR); type: cell-based, mouse; settings: 3 μM bosutinib or 0.3 μM dasatinib; LPS or Pam3CSK4
Procedure: mRNA was extracted from cells using the MicroElute Total RNA kit following the manufacturers’ instructions (Omega Bio-Tek). cDNA was generated from 0.5 μg of total RNA using the iScript cDNA synthesis kit and quantified by quantitative real-time PCR (qPCR) using the SsoFast EvaGreen Supermix on a CFX384 real-time system (Bio-Rad Laboratories). The relative expression of each gene was calculated from CT values using the Pfaffl method and was normalized against the mRNA levels of housekeeping genes including 18S RNA and GAPDH. Results are reported relative to untreated control cells, which were set to 1.

[3] = target: IGF-1R (Homo sapiens, UniProt P08069); test: Kinase profiling; type: biochemical
[4] = target: PKB alpha (Homo sapiens, UniProt P31749); test: Kinase profiling; type: biochemical
[5] = target: CK1 gamma 2 (Homo sapiens, UniProt P78368); test: Kinase profiling; type: biochemical
[6] = target: MLK1 (Homo sapiens, UniProt P80192); test: Kinase profiling; type: biochemical
[7] = target: T2, GCK (Homo sapiens, UniProt Q12851); test: Kinase profiling; type: biochemical
T2 sequence (Q12851 1-820): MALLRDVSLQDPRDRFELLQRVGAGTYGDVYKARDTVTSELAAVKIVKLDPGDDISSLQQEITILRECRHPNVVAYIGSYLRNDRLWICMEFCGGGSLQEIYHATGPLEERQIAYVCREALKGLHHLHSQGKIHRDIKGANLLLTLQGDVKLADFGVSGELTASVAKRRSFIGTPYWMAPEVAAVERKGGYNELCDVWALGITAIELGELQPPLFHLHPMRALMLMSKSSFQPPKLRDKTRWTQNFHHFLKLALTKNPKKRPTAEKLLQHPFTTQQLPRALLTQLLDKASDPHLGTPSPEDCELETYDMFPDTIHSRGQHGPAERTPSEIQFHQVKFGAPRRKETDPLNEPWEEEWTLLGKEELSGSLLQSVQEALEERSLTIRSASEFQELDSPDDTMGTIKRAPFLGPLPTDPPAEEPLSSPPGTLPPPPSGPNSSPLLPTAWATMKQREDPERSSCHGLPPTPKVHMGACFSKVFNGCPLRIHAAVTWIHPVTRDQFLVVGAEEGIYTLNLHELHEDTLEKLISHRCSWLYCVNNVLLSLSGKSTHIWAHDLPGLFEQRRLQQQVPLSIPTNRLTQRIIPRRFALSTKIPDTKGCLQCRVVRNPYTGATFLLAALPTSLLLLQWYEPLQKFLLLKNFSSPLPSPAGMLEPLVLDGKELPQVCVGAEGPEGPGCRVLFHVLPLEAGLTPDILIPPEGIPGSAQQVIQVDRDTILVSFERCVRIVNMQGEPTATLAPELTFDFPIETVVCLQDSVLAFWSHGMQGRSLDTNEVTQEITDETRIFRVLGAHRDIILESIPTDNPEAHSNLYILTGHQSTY

[8] = target: T3, SIK2[T96Q] (Homo sapiens, UniProt Q9H0K1, T96Q); type: biochemical; settings: gatekeeper threonine mutated to glutamine
T3 construct: GST; made in house; host or cells: HEK293 cells

[9] = target: T4, TSSK1 (Homo sapiens, UniProt Q9BXA7); test: Kinase profiling; type: biochemical
T4 sequence (Q9BXA7 1-367): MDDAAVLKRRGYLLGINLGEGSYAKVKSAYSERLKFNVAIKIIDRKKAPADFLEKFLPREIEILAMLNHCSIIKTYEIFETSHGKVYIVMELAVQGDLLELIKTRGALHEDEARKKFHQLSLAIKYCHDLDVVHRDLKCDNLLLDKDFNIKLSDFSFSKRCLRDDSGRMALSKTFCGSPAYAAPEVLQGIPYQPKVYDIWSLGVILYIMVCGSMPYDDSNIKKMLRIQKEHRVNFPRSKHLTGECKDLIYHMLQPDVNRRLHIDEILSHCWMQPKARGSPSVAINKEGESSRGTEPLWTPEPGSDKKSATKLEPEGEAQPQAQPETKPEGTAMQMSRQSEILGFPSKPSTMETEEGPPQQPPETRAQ

[10] = target: MARK1 (Homo sapiens, UniProt Q9P0L2); test: Kinase profiling; type: biochemical
MARK1, sequence (Q9P0L2 whole entry): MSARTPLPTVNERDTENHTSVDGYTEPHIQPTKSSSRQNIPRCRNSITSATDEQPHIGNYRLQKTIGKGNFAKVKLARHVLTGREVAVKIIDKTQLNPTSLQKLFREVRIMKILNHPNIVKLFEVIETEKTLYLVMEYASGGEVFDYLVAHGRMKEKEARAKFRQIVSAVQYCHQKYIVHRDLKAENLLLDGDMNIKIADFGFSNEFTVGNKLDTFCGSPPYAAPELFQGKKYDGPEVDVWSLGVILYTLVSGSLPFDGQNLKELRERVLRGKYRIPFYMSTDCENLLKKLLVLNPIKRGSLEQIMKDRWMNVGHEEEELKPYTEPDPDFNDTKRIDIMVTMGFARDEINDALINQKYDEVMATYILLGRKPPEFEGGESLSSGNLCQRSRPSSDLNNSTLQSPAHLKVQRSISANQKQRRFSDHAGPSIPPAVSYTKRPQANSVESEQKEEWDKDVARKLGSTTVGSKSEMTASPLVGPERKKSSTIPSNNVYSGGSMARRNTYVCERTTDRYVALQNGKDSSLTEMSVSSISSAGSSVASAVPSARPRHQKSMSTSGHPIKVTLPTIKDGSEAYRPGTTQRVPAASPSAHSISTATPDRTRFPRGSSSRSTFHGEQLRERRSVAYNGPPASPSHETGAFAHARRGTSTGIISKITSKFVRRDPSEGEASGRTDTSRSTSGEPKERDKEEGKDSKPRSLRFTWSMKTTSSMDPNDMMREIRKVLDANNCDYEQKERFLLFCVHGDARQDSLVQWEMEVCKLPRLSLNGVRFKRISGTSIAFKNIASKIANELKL

PKB alpha, sequence (P31749 whole entry): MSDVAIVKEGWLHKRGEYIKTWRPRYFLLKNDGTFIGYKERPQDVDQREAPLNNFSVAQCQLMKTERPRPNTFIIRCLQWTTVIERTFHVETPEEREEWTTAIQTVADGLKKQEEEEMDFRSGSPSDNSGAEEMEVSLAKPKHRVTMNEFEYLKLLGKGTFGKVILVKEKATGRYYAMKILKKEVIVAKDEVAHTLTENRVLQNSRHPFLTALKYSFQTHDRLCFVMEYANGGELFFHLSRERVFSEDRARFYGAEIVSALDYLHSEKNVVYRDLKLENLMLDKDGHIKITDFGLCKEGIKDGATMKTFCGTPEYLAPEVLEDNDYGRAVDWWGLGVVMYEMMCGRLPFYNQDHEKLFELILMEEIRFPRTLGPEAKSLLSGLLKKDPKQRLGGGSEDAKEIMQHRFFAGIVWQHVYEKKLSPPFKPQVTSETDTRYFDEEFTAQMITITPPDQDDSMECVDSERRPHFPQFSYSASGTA
IGF-1R, sequence (P08069 31-1367): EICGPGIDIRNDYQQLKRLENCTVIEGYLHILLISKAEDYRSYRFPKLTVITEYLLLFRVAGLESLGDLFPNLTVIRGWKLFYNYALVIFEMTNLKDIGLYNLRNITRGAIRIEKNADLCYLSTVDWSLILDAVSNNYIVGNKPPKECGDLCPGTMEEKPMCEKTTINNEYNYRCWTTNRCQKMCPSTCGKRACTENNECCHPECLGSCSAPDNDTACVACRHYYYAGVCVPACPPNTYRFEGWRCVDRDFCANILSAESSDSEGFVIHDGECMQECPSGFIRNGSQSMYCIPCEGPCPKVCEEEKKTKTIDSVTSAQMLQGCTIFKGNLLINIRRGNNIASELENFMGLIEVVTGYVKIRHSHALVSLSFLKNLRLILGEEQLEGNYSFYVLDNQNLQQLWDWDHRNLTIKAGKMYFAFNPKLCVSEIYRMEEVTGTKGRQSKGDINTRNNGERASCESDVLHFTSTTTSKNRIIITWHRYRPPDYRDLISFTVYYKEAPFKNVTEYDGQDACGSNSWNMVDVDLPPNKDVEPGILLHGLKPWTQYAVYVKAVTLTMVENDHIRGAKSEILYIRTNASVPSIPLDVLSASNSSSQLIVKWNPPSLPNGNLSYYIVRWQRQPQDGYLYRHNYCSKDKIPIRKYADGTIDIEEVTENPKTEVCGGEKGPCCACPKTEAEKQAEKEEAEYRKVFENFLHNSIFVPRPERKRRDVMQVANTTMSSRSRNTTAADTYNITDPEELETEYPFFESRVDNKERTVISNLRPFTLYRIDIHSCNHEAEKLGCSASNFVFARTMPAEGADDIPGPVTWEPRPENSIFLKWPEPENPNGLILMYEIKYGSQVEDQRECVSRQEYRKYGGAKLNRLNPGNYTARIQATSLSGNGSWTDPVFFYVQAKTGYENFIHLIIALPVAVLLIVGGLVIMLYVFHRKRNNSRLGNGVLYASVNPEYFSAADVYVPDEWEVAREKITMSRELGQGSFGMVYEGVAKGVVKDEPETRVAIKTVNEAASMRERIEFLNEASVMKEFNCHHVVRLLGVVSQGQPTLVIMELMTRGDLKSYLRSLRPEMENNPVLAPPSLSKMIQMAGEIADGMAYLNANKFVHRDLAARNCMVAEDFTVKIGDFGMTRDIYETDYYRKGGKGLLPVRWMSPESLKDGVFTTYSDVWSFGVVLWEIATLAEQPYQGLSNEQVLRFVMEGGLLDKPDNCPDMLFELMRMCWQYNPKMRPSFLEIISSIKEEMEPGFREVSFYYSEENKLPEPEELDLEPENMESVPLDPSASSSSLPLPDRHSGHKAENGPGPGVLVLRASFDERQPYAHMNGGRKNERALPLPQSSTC
CK1 gamma 2, sequence (P78368 whole entry): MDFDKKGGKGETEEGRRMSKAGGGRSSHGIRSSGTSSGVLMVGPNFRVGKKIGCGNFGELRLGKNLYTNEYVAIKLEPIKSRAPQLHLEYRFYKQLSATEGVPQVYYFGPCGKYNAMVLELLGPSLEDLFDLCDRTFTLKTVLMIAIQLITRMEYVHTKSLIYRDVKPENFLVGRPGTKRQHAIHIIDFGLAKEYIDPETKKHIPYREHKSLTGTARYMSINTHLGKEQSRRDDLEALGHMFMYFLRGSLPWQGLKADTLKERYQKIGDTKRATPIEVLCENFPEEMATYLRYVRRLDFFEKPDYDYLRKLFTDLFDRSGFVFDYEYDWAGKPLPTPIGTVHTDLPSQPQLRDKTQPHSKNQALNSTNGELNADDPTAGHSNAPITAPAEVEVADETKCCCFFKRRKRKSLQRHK
MLK1, sequence (P80192 whole entry): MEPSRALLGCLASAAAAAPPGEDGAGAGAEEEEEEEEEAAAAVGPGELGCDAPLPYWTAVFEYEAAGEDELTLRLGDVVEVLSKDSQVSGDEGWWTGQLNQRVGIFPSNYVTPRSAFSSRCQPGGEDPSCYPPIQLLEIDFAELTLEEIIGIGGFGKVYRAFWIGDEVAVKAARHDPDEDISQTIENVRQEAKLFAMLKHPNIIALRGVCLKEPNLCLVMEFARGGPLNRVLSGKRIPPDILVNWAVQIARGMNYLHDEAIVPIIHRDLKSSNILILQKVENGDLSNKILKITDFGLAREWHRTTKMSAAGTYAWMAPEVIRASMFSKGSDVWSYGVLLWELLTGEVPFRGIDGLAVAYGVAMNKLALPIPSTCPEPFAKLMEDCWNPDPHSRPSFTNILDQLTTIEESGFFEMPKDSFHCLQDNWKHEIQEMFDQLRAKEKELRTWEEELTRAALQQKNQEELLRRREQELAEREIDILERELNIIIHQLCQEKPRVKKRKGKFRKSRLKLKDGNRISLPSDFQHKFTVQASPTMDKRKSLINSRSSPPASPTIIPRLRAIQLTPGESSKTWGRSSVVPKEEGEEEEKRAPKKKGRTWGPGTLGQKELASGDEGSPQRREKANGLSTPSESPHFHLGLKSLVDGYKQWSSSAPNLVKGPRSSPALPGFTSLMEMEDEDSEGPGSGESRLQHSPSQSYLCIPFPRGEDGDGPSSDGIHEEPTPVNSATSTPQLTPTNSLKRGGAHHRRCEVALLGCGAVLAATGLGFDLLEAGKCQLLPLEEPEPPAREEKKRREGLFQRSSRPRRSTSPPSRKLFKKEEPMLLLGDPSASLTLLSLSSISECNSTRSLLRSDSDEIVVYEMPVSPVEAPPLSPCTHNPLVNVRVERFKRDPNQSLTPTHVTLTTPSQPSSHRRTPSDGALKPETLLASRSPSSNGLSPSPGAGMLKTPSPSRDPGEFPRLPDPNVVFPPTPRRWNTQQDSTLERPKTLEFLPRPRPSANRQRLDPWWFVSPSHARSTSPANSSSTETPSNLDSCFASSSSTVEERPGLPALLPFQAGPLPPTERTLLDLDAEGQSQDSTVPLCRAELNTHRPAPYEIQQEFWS
T3 sequence (Q9H0K1 whole entry T96Q): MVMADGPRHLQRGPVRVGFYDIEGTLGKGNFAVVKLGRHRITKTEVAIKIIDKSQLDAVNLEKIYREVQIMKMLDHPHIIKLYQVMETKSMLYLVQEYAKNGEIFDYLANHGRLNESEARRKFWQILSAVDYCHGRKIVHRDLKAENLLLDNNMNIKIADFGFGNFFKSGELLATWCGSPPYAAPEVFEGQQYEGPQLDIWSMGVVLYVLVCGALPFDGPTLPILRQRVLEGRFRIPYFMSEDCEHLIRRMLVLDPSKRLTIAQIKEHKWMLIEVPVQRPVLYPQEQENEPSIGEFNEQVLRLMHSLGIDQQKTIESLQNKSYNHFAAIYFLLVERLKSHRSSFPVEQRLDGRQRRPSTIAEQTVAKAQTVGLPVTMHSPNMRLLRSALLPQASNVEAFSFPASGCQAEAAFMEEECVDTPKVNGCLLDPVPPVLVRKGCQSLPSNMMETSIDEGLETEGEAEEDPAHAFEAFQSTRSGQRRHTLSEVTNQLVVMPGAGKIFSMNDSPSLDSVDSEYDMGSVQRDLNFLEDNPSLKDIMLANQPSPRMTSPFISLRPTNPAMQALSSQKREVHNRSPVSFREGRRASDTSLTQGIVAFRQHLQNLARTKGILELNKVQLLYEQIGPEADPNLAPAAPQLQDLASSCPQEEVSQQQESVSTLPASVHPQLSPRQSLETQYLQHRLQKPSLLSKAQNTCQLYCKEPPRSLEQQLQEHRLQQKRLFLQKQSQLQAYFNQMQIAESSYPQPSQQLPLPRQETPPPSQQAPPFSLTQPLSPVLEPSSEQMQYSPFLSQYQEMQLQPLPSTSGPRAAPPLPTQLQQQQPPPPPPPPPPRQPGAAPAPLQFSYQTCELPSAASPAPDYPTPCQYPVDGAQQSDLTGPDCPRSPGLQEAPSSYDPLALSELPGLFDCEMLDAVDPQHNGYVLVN

Row | SMILES | remaining activity at 0.1 µM [1] | remaining activity at 1 µM [1] | Transcription of CREB-dependent genes IL-10, Nurr77 and c-FOS [2] | remaining activity at 0.1 µM [3] | remaining activity at 1 µM [3] | remaining activity at 0.1 µM ([4]; 0.1 µM) | remaining activity at 1 µM [4] | remaining activity at 0.1 µM [5] | remaining activity at 1 µM [5] | remaining activity at 0.1 µM [6] | remaining activity at 1 µM [6] | remaining activity at 0.1 µM [7] | remaining activity at 1 µM [7] | Loss of sensitivity of SIK2[T96Q] versus wild-type [8] | remaining activity at 0.1 µM [9] | remaining activity at 1 µM [9] | remaining activity at 0.1 µM [10] | remaining activity at 1 µM [10]
1 | COc1cc(Nc2c(C#N)cnc3cc(OCCCN4CCN(C)CC4)c(OC)cc23)c(Cl)cc1Cl [Bosutinib, bosutinib] | 41 ± 9% | 5% | elevated the transcription | 89 ± 8% | 79 ± 4% | 110 ± 16% | 116 ± 30% | 117 ± 1% | 108 ± 4% | 52 ± 9% | 18 ± 4% | 9 ± 2% | 4% | 100–1000 fold | 67 ± 1% | 22 ± 2% | 84 ± 5% | 76 ± 4%
2 | Cc1nc(Nc2ncc(C(=O)Nc3c(C)cccc3Cl)s2)cc(N2CCN(CCO)CC2)n1 [Dasatinib] | 97 ± 23% | 99 ± 7% | elevated the transcription | 107 ± 6% | 98 ± 7% |  | 120 ± 13% | 115% | 113 ± 12% | 72 ± 1% | 41 ± 2% | 95 ± 7% | 56 ± 8% | 100–1000 fold | 106 ± 11% | 113 ± 3% | 115 ± 3% | 127 ± 3%
